Legend:
[1] = oral administration; cited from earlier work
[2] = Solubility test in simulated biological fluids (FaSSGF), UPLC; assay type: physicochemical; conditions: Fasted-State Simulated Gastric Fluid (FaSSGF), fassgf or other biorelevant, thermodynamic from solid, pH 1.6, samples containing equal amounts of BBR
Method: The solubility test was conducted by comparing samples containing equal amounts of BBR. […] The analysis was conducted by the UPLC (Ultra High Performance Liquid Chromatography) method described below: ANALYSIS CONDITIONS: Flow rate: 0.4 ml/minute; Detection: 348 nm. SAMPLE SOLUTION: 30 mg in 200 ml (Chromatogram of a typical sample of ˜0.15 mg/ml, in FIG. 1). STANDARD SOLUTION: 10 mg of pure reference BBR in 200 ml of methanol (Standard solution ˜0.05 mg/ml, typical chromatogram in FIG. 2). The solubility test was conducted using Fasted-State Simulated Gastric Fluid (FaSSGF), prepared as reported below, as solvent. 1) Preparation of an NaCl/HCl solution for FaSSGF (1 litre): 2 g of NaCl was dissolved in […] of purified water, the pH was adjusted to 1.6 with HCl, and the mixture was made up to volume with purified water (1 litre). 2) 0.06 g of powder* (FaSSGF—Biorelevant media) was added to about 500 ml of the NaCl/HCl solution at room temperature and made up to volume (1 l) with the NaCl/HCl solution to obtain a clear, ready-for-use liquid. *Final sodium taurocholate 0.08 mM, final lecithin 0.02 mM

| Structure (SMILES) | fraction which reaches the systemic circulation [1] [%] | oral absorption [1] | solubility [2] [µg/mL] |
| --- | --- | --- | --- |
| COc1ccc2cc3[n+](cc2c1OC)CCc1cc2c(cc1-3)OCO2 [BBR, Berberine] | 0.36 | ≤ 0.5 % of the administered dose | – |
| COc1ccc2cc3[n+](cc2c1OC)CCc1cc2c(cc1-3)OCO2 [Reference 1, berberine] | – | – | 113 |
